“And” between values parts separate entries of the source, which are not always exact repeats. Identical values can stand only once. Toxic doses and inconclusive results are not listed.
Test system: L1210 leukemia ip in BDF1 mice, survival T/C
Assay: NCI In Vivo Anticancer Drug Screen. Data for tumor model L1210 Leukemia (intraperitoneal) in B6D2F1 (BDF1) mice
Conditions: vehicle: saline, higher = longer survival
Outline: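 In this screen, tumor-bearing mice given compound are compared to those given vehicle, and their survival values are reported as a treated-to-control quotient.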

**Q.** `Oc1cc(CN(CCCl)CCCl)c(O)cc1CN(CCCl)CCCl` was tested. Which T/C (endpoint: mean survival time, dose: 0.06 mg/kg/injection, schedule: Q#A X Z (ip)) did it give?
**A.** 118 % of control

**Q.** And the T/C (endpoint: mean survival time, dose: 0.13 mg/kg/injection, schedule: Q01DX Z (ip))?
**A.** 120 % of control

**Q.** And the T/C (endpoint: mean survival time, dose: 0.25 mg/kg/injection, schedule: Q01DX001 (ip))?
**A.** 111 % of control

**Q.** And the T/C (endpoint: mean survival time, dose: 0.25 mg/kg/injection, schedule: Q01DX Z (ip))?
**A.** 122 % of control

**Q.** And the T/C (endpoint: mean survival time, dose: 0.25 mg/kg/injection, schedule: Q07DX003 (ip))?
**A.** 158 % of control

**Q.** What about the T/C (endpoint: mean survival time, dose: 0.5 mg/kg/injection, schedule: Q01DX001 (ip)) of the same compound?
**A.** 104 % of control

**Q.** And the T/C (endpoint: mean survival time, dose: 0.5 mg/kg/injection, schedule: Q01DX010 (ip))?
**A.** 121 % of control

**Q.** What about the T/C (endpoint: mean survival time, dose: 0.5 mg/kg/injection, schedule: Q07DX003 (ip)) of the same compound?
**A.** 104 % of control

**Q.** What about the T/C (endpoint: mean survival time, dose: 0.5 mg/kg/injection, schedule: Q#A X Z (ip)) of the same compound?
**A.** 122 % of control

**Q.** And the T/C (endpoint: mean survival time, dose: 1.0 mg/kg/injection, schedule: Q01DX001 (ip))?
**A.** 107 % of control and 113 % of control

**Q.** What about the T/C (endpoint: mean survival time, dose: 1.25 mg/kg/injection, schedule: Q01DX009 (ip)) of the same compound?
**A.** 107 % of control and 118 % of control

**Q.** And the T/C (endpoint: mean survival time, dose: 2.0 mg/kg/injection, schedule: Q01DX001 (ip))?
**A.** 111 % of control and 120 % of control

**Q.** What about the T/C (endpoint: mean survival time, dose: 2.0 mg/kg/injection, schedule: Q01DX006 (iv)) of the same compound?
**A.** 114 % of control

**Q.** What about the T/C (endpoint: mean survival time, dose: 2.0 mg/kg/injection, schedule: Q01DX Z (im)) of the same compound?
**A.** 108 % of control

**Q.** What about the T/C (endpoint: mean survival time, dose: 2.0 mg/kg/injection, schedule: Q01DX Z (sc)) of the same compound?
**A.** 108 % of control

**Q.** What about the T/C (endpoint: mean survival time, dose: 2.5 mg/kg/injection, schedule: Q01DX009 (ip)) of the same compound?
**A.** 119 % of control

**Q.** What about the T/C (endpoint: mean survival time, dose: 3.0 mg/kg/injection, schedule: Q03DX006 (ip)) of the same compound?
**A.** 106 % of control

**Q.** And the T/C (endpoint: mean survival time, dose: 4.0 mg/kg/injection, schedule: Q01DX001 (ip))?
**A.** 108 % of control

**Q.** What about the T/C (endpoint: mean survival time, dose: 4.0 mg/kg/injection, schedule: Q01DX006 (iv)) of the same compound?
**A.** 117 % of control

**Q.** What about the T/C (endpoint: mean survival time, dose: 4.0 mg/kg/injection, schedule: Q01DX010 (ip)) of the same compound?
**A.** 119 % of control

**Q.** What about the T/C (endpoint: mean survival time, dose: 4.0 mg/kg/injection, schedule: Q01DX Z (im)) of the same compound?
**A.** 120 % of control

**Q.** And the T/C (endpoint: mean survival time, dose: 4.0 mg/kg/injection, schedule: Q01DX Z (sc))?
**A.** 114 % of control

**Q.** And the T/C (endpoint: mean survival time, dose: 5.0 mg/kg/injection, schedule: Q01DX009 (ip))?
**A.** 122 % of control

**Q.** And the T/C (endpoint: mean survival time, dose: 5.0 mg/kg/injection, schedule: Q01DX010 (ip))?
**A.** 117 % of control

**Q.** And the T/C (endpoint: mean survival time, dose: 8.0 mg/kg/injection, schedule: Q01DX001 (ip))?
**A.** 104 % of control and 113 % of control

**Q.** And the T/C (endpoint: mean survival time, dose: 8.0 mg/kg/injection, schedule: Q01DX006 (iv))?
**A.** 123 % of control

**Q.** What about the T/C (endpoint: mean survival time, dose: 8.0 mg/kg/injection, schedule: Q01DX Z (im)) of the same compound?
**A.** 108 % of control

**Q.** And the T/C (endpoint: mean survival time, dose: 8.0 mg/kg/injection, schedule: Q01DX Z (oral))?
**A.** 117 % of control

**Q.** What about the T/C (endpoint: mean survival time, dose: 8.0 mg/kg/injection, schedule: Q01DX Z (sc)) of the same compound?
**A.** 111 % of control

**Q.** And the T/C (endpoint: mean survival time, dose: 8.0 mg/kg/injection, schedule: Q#A X Z (ip))?
**A.** 102 % of control

**Q.** What about the T/C (endpoint: mean survival time, dose: 10.0 mg/kg/injection, schedule: Q01DX009 (ip)) of the same compound?
**A.** 93 % of control and 96 % of control

**Q.** And the T/C (endpoint: mean survival time, dose: 10.0 mg/kg/injection, schedule: Q01DX010 (ip))?
**A.** 89 % of control

**Q.** And the T/C (endpoint: mean survival time, dose: 16.0 mg/kg/injection, schedule: Q01DX001 (ip))?
**A.** 122 % of control and 124 % of control

**Q.** What about the T/C (endpoint: mean survival time, dose: 16.0 mg/kg/injection, schedule: Q01DX006 (iv)) of the same compound?
**A.** 123 % of control

**Q.** What about the T/C (endpoint: mean survival time, dose: 16.0 mg/kg/injection, schedule: Q01DX Z (im)) of the same compound?
**A.** 117 % of control

**Q.** What about the T/C (endpoint: mean survival time, dose: 16.0 mg/kg/injection, schedule: Q01DX Z (ip)) of the same compound?
**A.** 103 % of control

**Q.** And the T/C (endpoint: mean survival time, dose: 16.0 mg/kg/injection, schedule: Q01DX Z (oral))?
**A.** 109 % of control

**Q.** What about the T/C (endpoint: mean survival time, dose: 16.0 mg/kg/injection, schedule: Q01DX Z (sc)) of the same compound?
**A.** 120 % of control

**Q.** What about the T/C (endpoint: mean survival time, dose: 16.0 mg/kg/injection, schedule: Q07DX003 (ip)) of the same compound?
**A.** 114 % of control

**Q.** And the T/C (endpoint: mean survival time, dose: 24.0 mg/kg/injection, schedule: Q03DX006 (ip))?
**A.** 124 % of control

**Q.** What about the T/C (endpoint: mean survival time, dose: 32.0 mg/kg/injection, schedule: Q01DX001 (ip)) of the same compound?
**A.** 120 % of control

**Q.** What about the T/C (endpoint: mean survival time, dose: 32.0 mg/kg/injection, schedule: Q01DX Z (im)) of the same compound?
**A.** 93 % of control

**Q.** What about the T/C (endpoint: mean survival time, dose: 32.0 mg/kg/injection, schedule: Q01DX Z (oral)) of the same compound?
**A.** 111 % of control

**Q.** And the T/C (endpoint: mean survival time, dose: 32.0 mg/kg/injection, schedule: Q01DX Z (sc))?
**A.** 110 % of control

**Q.** What about the T/C (endpoint: mean survival time, dose: 48.0 mg/kg/injection, schedule: Q03DX006 (ip)) of the same compound?
**A.** 104 % of control

**Q.** What about the T/C (endpoint: mean survival time, dose: 64.0 mg/kg/injection, schedule: Q01DX001 (ip)) of the same compound?
**A.** 108 % of control and 110 % of control

**Q.** And the T/C (endpoint: mean survival time, dose: 64.0 mg/kg/injection, schedule: Q01DX Z (im))?
**A.** 95 % of control

**Q.** And the T/C (endpoint: mean survival time, dose: 64.0 mg/kg/injection, schedule: Q01DX Z (oral))?
**A.** 105 % of control

**Q.** What about the T/C (endpoint: mean survival time, dose: 64.0 mg/kg/injection, schedule: Q01DX Z (sc)) of the same compound?
**A.** 87 % of control

**Q.** What about the T/C (endpoint: mean survival time, dose: 64.0 mg/kg/injection, schedule: Q07DX003 (ip)) of the same compound?
**A.** 106 % of control

**Q.** What about the T/C (endpoint: mean survival time, dose: 128.0 mg/kg/injection, schedule: Q01DX001 (ip)) of the same compound?
**A.** 108 % of control and 114 % of control

**Q.** What about the T/C (endpoint: mean survival time, dose: 256.0 mg/kg/injection, schedule: Q01DX001 (ip)) of the same compound?
**A.** 119 % of control

**Q.** And the T/C (endpoint: mean survival time, dose: 16.0 micrograms/kg/injection, schedule: Q03DX003 (ip))?
**A.** 104 % of control

**Q.** And the T/C (endpoint: mean survival time, dose: 32.0 micrograms/kg/injection, schedule: Q03DX003 (ip))?
**A.** 98 % of control

**Q.** And the T/C (endpoint: mean survival time, dose: 37.5 micrograms/kg/injection, schedule: Q07DX002 (ip))?
**A.** 102 % of control

**Q.** And the T/C (endpoint: mean survival time, dose: 62.5 micrograms/kg/injection, schedule: Q03DX003 (ip))?
**A.** 107 % of control

**Q.** What about the T/C (endpoint: mean survival time, dose: 75.0 micrograms/kg/injection, schedule: Q07DX002 (ip)) of the same compound?
**A.** 101 % of control

**Q.** And the T/C (endpoint: mean survival time, dose: 125.0 micrograms/kg/injection, schedule: Q03DX003 (ip))?
**A.** 102 % of control

**Q.** What about the T/C (endpoint: mean survival time, dose: 150.0 micrograms/kg/injection, schedule: Q07DX002 (ip)) of the same compound?
**A.** 104 % of control

**Q.** What about the T/C (endpoint: mean survival time, dose: 300.0 micrograms/kg/injection, schedule: Q07DX002 (ip)) of the same compound?
**A.** 102 % of control

**Q.** And the T/C (endpoint: median survival time, dose: 1.25 mg/kg/injection, schedule: Q01DX009 (ip))?
**A.** 157 % of control

**Q.** And the T/C (endpoint: median survival time, dose: 5.0 mg/kg/injection, schedule: Q01DX009 (ip))?
**A.** 122 % of control

**Q.** What about the T/C (endpoint: median survival time, dose: 10.0 mg/kg/injection, schedule: Q01DX009 (ip)) of the same compound?
**A.** 105 % of control and 114 % of control
